System: Plasmodium falciparum
Assay: GSK_TCMDC: Inhibition of Plasmodium falciparum 3D7 in whole erythrocytes, using parasite LDH activity as an index of growth.
Assay type: functional, organism-based
Details: Plasmodium falciparum, 3D7

**Q.** `CN(CCN)Cc1cccc(-c2ccc(-c3nc4cc(C(F)(F)F)ccc4[nH]3)s2)c1` was tested. Which XC50 did it give?
**A.** Its XC50 is 997 nM.

**Q.** For `CCCCn1c(=N)c(C(=O)NCc2cccnc2)cc2c(=O)n3cccc(C)c3nc21`, which XC50 is on record?
**A.** The XC50 was 745 nM.

**Q.** Which XC50 does the source give for `CCOc1c(Br)cc(C)cc1CNCCCNc1nc2ccccc2[nH]1` here?
**A.** Its XC50 is 666 nM.

**Q.** With `CCCCCCCCN1CCCN(C(=O)c2cccc(NC(=O)Nc3ccc4ccccc4c3)c2)CC1` as the compound, how does the XC50 read?
**A.** The XC50 was 762 nM.

**Q.** `COc1ccc(NC(=O)Nc2cccc(-c3cccc(-c4nc5cc(F)ccc5[nH]4)c3)c2)cc1` was tested. Which XC50 did it give?
**A.** The XC50 was 171 nM.

**Q.** With `Cc1c(Cl)cccc1S(=O)(=O)N1CCCCC(c2ccc(C(F)(F)F)cc2)=N1` as the compound, how does the XC50 read?
**A.** Its XC50 is 788 nM.

**Q.** With `Cc1nnsc1C(=O)Nc1cccc(-c2ccc(-c3nc4ccccc4[nH]3)s2)c1` as the compound, how does the XC50 read?
**A.** The XC50 was 885 nM.

**Q.** For `COc1ccccc1C(=O)Nc1ccc(Nc2nc(C)cc(N(C)C)n2)cc1`, which XC50 is on record?
**A.** Its XC50 is 789 nM.

**Q.** `Cn1cncc1CCCN(Cc1ccc(-c2ccc(C(F)(F)F)cc2)cc1)C(=O)Cn1c(CCc2cccc(F)c2F)cc(=O)c2cccnc21` was tested. Which XC50 did it give?
**A.** The XC50 was 1250 nM.

**Q.** For `Oc1ccccc1CNCc1ccc(-c2cnc(N3CCCC(c4ccccc4)C3)nc2)cc1` (stereo not drawn), which XC50 is on record?
**A.** The XC50 was 689 nM.

**Q.** How did the XC50 turn out when `Cc1cc(N[C@@H](CC(C)C)C(=O)NCCc2ccccc2)nc(NCCc2cccs2)n1` was run?
**A.** The XC50 was 1200 nM.

**Q.** `Cc1cccc2nc(-c3cccc(-c4ccc(NC(=O)c5cnn6cccnc56)cc4)c3)[nH]c12` was tested. Which XC50 did it give?
**A.** The XC50 was 212 nM.

**Q.** `Cc1cccc2nc(-c3ccc(-c4cccc(CNCCN(C)C)c4)cc3)[nH]c12` was tested. Which XC50 did it give?
**A.** The XC50 was 682 nM.

**Q.** For `O=C(c1ccc(-c2cccc(-c3nc4cc(F)ccc4[nH]3)c2)cc1)N1CCCCC1CN1CCC(O)C1` (stereo not drawn), which XC50 is on record?
**A.** The XC50 was 1400 nM.

**Q.** How did the XC50 turn out when `COc1ccc(Cl)cc1S(=O)(=O)Nc1cccc(CCN2CCC(N3CCCCC3)CC2)c1` was run?
**A.** The XC50 was 704 nM.

**Q.** How did the XC50 turn out when `O=C(NC(CCCN1CCC2(CC1)OCc1ccccc12)c1ccc(Cl)c(Cl)c1)c1cc(C(F)(F)F)cc(C(F)(F)F)c1` (stereo not drawn) was run?
**A.** Its XC50 is 543 nM.

**Q.** Which XC50 does the source give for `COc1ccc(OCCCON2C(=N)N=C(N)NC2(C)C)cc1` here?
**A.** Its XC50 is 3.2 nM.

**Q.** Which XC50 does the source give for `COCCN1CCC(C(=O)NCC(C)(C)c2nc(-c3ccc(Br)c(O)c3)c(-c3ccncc3)[nH]2)CC1` here?
**A.** Its XC50 is 911 nM.

**Q.** How did the XC50 turn out when `CC(C)c1cccc(OCC2CCN(c3ncc(C(=O)Nc4ccccc4)cc3Cl)CC2)c1` was run?
**A.** Its XC50 is 1060 nM.

**Q.** How did the XC50 turn out when `OCC1CCN(Cc2ccc(-c3ccc(-c4nc5cc(F)ccc5[nH]4)s3)cc2)CC1` was run?
**A.** Its XC50 is 850 nM.

**Q.** `O=C(Nc1cccc(F)c1)NC1CCN(c2ccnc3cc(Cl)ccc23)CC1` was tested. Which XC50 did it give?
**A.** The XC50 was 609 nM.

**Q.** For `O=C(/C=C/c1ccc(Cl)c(Cl)c1)NC1CCC(CN2CCC(c3coc4ccccc34)CC2)CC1` (stereo not drawn), which XC50 is on record?
**A.** Its XC50 is 826 nM.

**Q.** For `Cc1c(Br)cc2nc(-c3ccc(C(=O)NC4CCN(Cc5ccccc5)CC4)cc3)[nH]c2c1C`, which XC50 is on record?
**A.** The XC50 was 332 nM.

**Q.** How did the XC50 turn out when `O=C(Nc1ccc(OC2CCN(Cc3ccsc3)CC2)c(Cl)c1)c1ccco1` was run?
**A.** The XC50 was 784 nM.

**Q.** `COc1ccc(-c2ccc(NC(=O)c3ccc(C#N)cc3)cc2)cc1CN1CCC(O)CC1` was tested. Which XC50 did it give?
**A.** The XC50 was 581 nM.

**Q.** Which XC50 does the source give for `NCc1ccc(CNCc2ccc(-c3ccc(-c4nc5cc(C(F)(F)F)ccc5[nH]4)s3)cc2)cc1` here?
**A.** The XC50 was 157 nM.

**Q.** Which XC50 does the source give for `CC(CCON1C(N)=NC(N)=NC1(C)C)c1ccc(Cl)c(Cl)c1` (stereo not drawn) here?
**A.** Its XC50 is 3.2 nM.

**Q.** With `CCOc1cc(CC)ccc1C1CCN(CCN2CCC(CNC(=O)c3ccc(-c4ccc(C#N)cc4)cc3)CC2)CC1` as the compound, how does the XC50 read?
**A.** Its XC50 is 708 nM.

**Q.** With `O=C(Nc1cccc(C(F)(F)F)c1)NC1CCN(c2ccnc3cc(Cl)ccc23)CC1` as the compound, how does the XC50 read?
**A.** Its XC50 is 289 nM.

**Q.** With `CC(=O)c1c(C)[nH]c(C(=O)Nc2ccc(-c3nc4ccc(C)cc4s3)cc2)c1C` as the compound, how does the XC50 read?
**A.** The XC50 was 837 nM.

**Q.** With `CCN(CC)S(=O)(=O)c1ccc(C(=O)Oc2ccccc2N(Cc2ccc(OC)cc2)C2=NS(=O)(=O)c3ccccc32)cc1` as the compound, how does the XC50 read?
**A.** Its XC50 is 585 nM.

**Q.** Which XC50 does the source give for `COc1ccc(CNCc2cccc(-c3ccc(-c4nc5ccccc5[nH]4)cc3)c2)cc1` here?
**A.** Its XC50 is 311 nM.

**Q.** `Cc1ccc(Cn2nc(N3CCNCC3)ccc2=O)cc1NC(=O)Nc1ccc(-c2ccccc2)cc1` was tested. Which XC50 did it give?
**A.** Its XC50 is 836 nM.

**Q.** `O=c1ccccn1CCCC1CCCCN1` (stereo not drawn) was tested. Which XC50 did it give?
**A.** The XC50 was 809 nM.

**Q.** Which XC50 does the source give for `CN1C(C)(C)CC(NC(=O)c2ccc(-c3nc4cc(Cl)c(Cl)cc4[nH]3)cc2)CC1(C)C` here?
**A.** Its XC50 is 730 nM.

**Q.** `O=C(Nc1ccc(OC2CCN(Cc3ccccc3)CC2)c(Cl)c1)c1ccsc1` was tested. Which XC50 did it give?
**A.** The XC50 was 900 nM.

**Q.** With `O=C(/C=C/c1ccc(Cl)c(Cl)c1)NCCCCCN1CCC(c2cn[nH]c2-c2ccccc2)CC1` as the compound, how does the XC50 read?
**A.** Its XC50 is 1220 nM.

**Q.** With `CCC1(CC)N=C(N)N=C(N)C1c1ccc(Cl)c(Cl)c1` (stereo not drawn) as the compound, how does the XC50 read?
**A.** The XC50 was 380 nM.
